Data taken from patent publication US20190071416A1, “COMPOUNDS FOR TREATMENT OF CANCER AND EPIGENETICS” (Agency For Science, Technology and Research, priority 2015, published 2019).

These compounds were tested against T1, SMYD3 (Homo sapiens, UniProt Q9H7B4) (assay: SMYD3 biochemical assay (MTase-Glo, MAP3K2 peptide substrate)). Details: Table 3; MTase assay, MAP3K2 peptide substrate; read-out: IC50.
T1 sequence (Q9H7B4 1-428): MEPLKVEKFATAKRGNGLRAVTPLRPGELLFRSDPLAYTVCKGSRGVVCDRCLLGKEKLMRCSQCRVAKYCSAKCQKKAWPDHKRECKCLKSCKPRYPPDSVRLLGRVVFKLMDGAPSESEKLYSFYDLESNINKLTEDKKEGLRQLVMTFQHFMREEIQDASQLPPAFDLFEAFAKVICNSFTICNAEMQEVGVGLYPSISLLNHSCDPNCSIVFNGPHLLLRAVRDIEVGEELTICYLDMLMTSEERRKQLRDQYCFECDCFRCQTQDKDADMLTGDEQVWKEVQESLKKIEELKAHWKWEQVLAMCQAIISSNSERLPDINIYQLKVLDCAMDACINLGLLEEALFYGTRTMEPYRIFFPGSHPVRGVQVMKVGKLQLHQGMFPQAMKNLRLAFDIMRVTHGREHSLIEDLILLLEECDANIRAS
Summary of the method: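 Methylation of MAP3K2 peptide (10 µM final) with SAM (1.0 µM final) by SMYD3, 30 min at room temperature. SAH formed was enzymatically converted to ATP and detected as luminescence with MTase-Glo reagents; IC50 by non-linear regression.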
In the case of `CCCOC(=O)N1CCN(C(=O)c2ccc3c(Cl)cc(-c4ccc(-n5cccn5)cc4)nc3c2)CC1` [B134, Propyl 4-(2-(4-(1H-pyrazol-1-yl)phenyl)-4-chloroquinoline-7-carbonyl)piperazine-1-carboxylate], the IC50 is reported as 600 nM. In the case of `CCCOC(=O)N1CCN(C(=O)c2ccc3c(Cl)cc(-c4ccc(-c5ccn[nH]5)cc4)nc3c2)CC1` [B135, Propyl 4-(2-(4-(1H-pyrazol-5-yl)phenyl)-4-chloroquinoline-7-carbonyl)piperazine-1-carboxylate], the IC50 is reported as 400 nM. `CCCOC(=O)N1CCN(C(=O)c2ccc3c(Cl)cc(-c4ccc(-c5cn[nH]c5)cc4)nc3c2)CC1` [B136, Propyl 4-(2-(4-(1H-pyrazol-4-yl)phenyl)-4-chloroquinoline-7-carbonyl)piperazine-1-carboxylate] showed an IC50 of 38 nM. With `CCCOC(=O)N1CCN(C(=O)c2ccc3c(Cl)cc(-c4ccc(C(=O)O)c(C)c4)nc3c2)CC1` [B137, 4-(4-Chloro-7-(4-(propoxycarbonyl)piperazine-1-carbonyl)quinolin-2-yl)-2-methylbenzoic acid] the IC50 was 3600 nM. In the case of `CCCOC(=O)N1CCN(C(=O)c2ccc3c(Cl)cc(-c4cc[nH]n4)nc3c2)CC1` [B138, Propyl 4-(4-chloro-2-(1H-pyrazol-5-yl)quinoline-7-carbonyl)piperazine-1-carboxylate], the IC50 is reported as 830 nM. `CCCOC(=O)N1CCN(C(=O)c2ccc3c(Cl)cc(-c4ccc5[nH]cnc5c4)nc3c2)CC1` [B139, Propyl 4-(2-(1H-benzo[d]imidazol-5-yl)-4-chloroquinoline-7-carbonyl)piperazine-1-carboxylate] showed an IC50 of 34 nM. Work on `CCCOC(=O)N1CCN(C(=O)c2ccc3c(Cl)cc(-c4ccc5c(ccn5C)c4)nc3c2)CC1` [B140, Propyl 4-(4-chloro-2-(1-methyl-1H-indo1-5-yl)quinoline-7-carbonyl)piperazine-1-carboxylate] yielded an IC50 of 350 nM. `CCCOC(=O)N1CCN(C(=O)c2ccc3c(Cl)cc(-c4cccc5[nH]ncc45)nc3c2)CC1` [B141, Propyl 4-(4-chloro-2-(1H-indazol-4-yl)quinoline-7-carbonyl)piperazine-1-carboxylate] gave an IC50 of 630 nM. `CCCOC(=O)N1CCN(C(=O)c2ccc3c(Cl)cc(-c4cccc(CO)c4)nc3c2)C[C@H]1C` [B142, Propyl (R)-4-(4-chloro-2-(3-(hydroxymethyl)phenyl)quinoline-7-carbonyl)-2-methylpiperazine-1-carboxylate] was tested, and the IC50 was 55 nM. Compound `CCCOC(=O)N1CCN(C(=O)c2ccc3c(Cl)cc(-c4cccc(O)c4)nc3c2)CC1` [B143, Propyl 4-(4-chloro-2-(3-hydroxyphenyl)quinoline-7-carbonyl)piperazine-1-carboxylate] has an IC50 of 16 nM. `CCCOC(=O)N1CCN(C(=O)c2ccc3c(Cl)cc(-c4ccc5c(cnn5C)c4)nc3c2)C[C@@H]1C` [B144, Propyl (S)-4-(4-chloro-2-(1-methyl-1H-indazol-5-yl)quinoline-7-carbonyl)-2-methylpiperazine-1-carboxylate] showed an IC50 of 18 nM. Work on `CCCOC(=O)N1CCN(C(=O)c2ccc3c(Cl)cc(-c4cccc(CN)c4)nc3c2)C[C@@H]1C` [B145, Propyl (S)-4-(2-(3-(aminomethyl)phenyl)-4-chloroquinoline-7-carbonyl)-2-methylpiperazine-1-carboxylate] yielded an IC50 of 47 nM. Compound `CCCOC(=O)N1CCN(C(=O)c2ccc3c(Cl)cc(-c4ccc(C(N)=O)cc4)nc3c2)C[C@@H]1C` [B146, Propyl (S)-4-(2-(4-carbamoylphenyl)-4-chloroquinoline-7-carbonyl)-2-methylpiperazine-1-carboxylate] has an IC50 of 42 nM. `CCCOC(=O)N1CCN(C(=O)c2ccc3c(Cl)cc(-c4cn[nH]c4)nc3c2)CC1` [B147, Propyl 4-(4-chloro-2-(1H-pyrazol-4-yl)quinoline-7-carbonyl)piperazine-1-carboxylate] gave an IC50 of 150 nM. `CCCOC(=O)N1CCN(C(=O)c2ccc3c(Cl)cc(-c4ccsc4)nc3c2)CC1` [B148, Propyl 4-(4-chloro-2-(thiophen-3-yl)quinoline-7-carbonyl)piperazine-1-carboxylate] was tested, and the IC50 was 99 nM. `CCCOC(=O)N1CCN(C(=O)c2ccc3c(Cl)cc(-c4ccc(NC(C)=O)nc4)nc3c2)CC1` [B149, Propyl 4-(2-(6-acetamidopyridin-3-yl)-4-chloroquinoline-7-carbonyl)piperazine-1-carboxylate] gave an IC50 of 110 nM. For `CCCOC(=O)N1CCN(C(=O)c2ccc3c(Cl)cc(-c4ccc(F)c(CO)c4)nc3c2)CC1` [B150], the IC50 was 280 nM. Compound `CCCOC(=O)N1CCN(C(=O)c2ccc3c(Cl)cc(-c4ccc(F)c(C(N)=O)c4)nc3c2)CC1` [B151, Propyl 4-(2-(3-carbamoyl-4-fluorophenyl)-4-chloroquinoline-7-carbonyl)piperazine-1-carboxylate] has an IC50 of 620 nM. `CCCOC(=O)N1CCN(C(=O)c2ccc3c(Cl)cc(-c4ccc(F)c(C(=O)NC)c4)nc3c2)CC1` [B152, Propyl 4-(4-chloro-2-(4-fluoro-3-(methylcarbamoyl)phenyl)quinoline-7-carbonyl)piperazine-1-carboxylate] showed an IC50 of 410 nM. In the case of `CCCOC(=O)N1CCN(C(=O)c2ccc3c(Cl)cc(-c4cscn4)nc3c2)CC1` [B153, Propyl 4-(4-chloro-2-(thiazol-4-yl)quinoline-7-carbonyl)piperazine-1-carboxylate], the IC50 is reported as 1130 nM. `CCCOC(=O)N1CCN(C(=O)c2ccc3c(Cl)cc(-c4ccc(F)c(C(=O)N(C)C)c4)nc3c2)CC1` [B154, Propyl 4-(4-chloro-2-(3-(dimethylcarbamoyl)-4-fluorophenyl)quinoline-7-carbonyl)piperazine-1-carboxylate] showed an IC50 of 2290 nM. With `CCCOC(=O)N1CCN(C(=O)c2ccc3c(Cl)cc(-c4ccc5c(cnn5C)c4)nc3c2)CC1C` (centres unmarked) [B155, Propyl 4-(4-chloro-2-(1-methyl-1H-indazol-5-yl)quinoline-7-carbonyl)-2-methylpiperazine-1-carboxylate] the IC50 was 180 nM. `CCCOC(=O)N1CCN(C(=O)c2ccc3c(Cl)cc(-c4ccc(F)c(O)c4)nc3c2)CC1` [B157, Propyl 4-(4-chloro-2-(4-fluoro-3-hydroxyphenyl)quinoline-7-carbonyl)piperazine-1-carboxylate] was tested, and the IC50 was 360 nM. With `CCCOC(=O)N1CCN(C(=O)c2ccc3c(Cl)cc(-c4cccc(C(C)O)c4)nc3c2)CC1` (centres unmarked) [B158, Propyl 4-(4-chloro-2-(3-(1-hydroxyethyl)phenyl)quinoline-7-carbonyl)piperazine-1-carboxylate] the IC50 was 84 nM. `CCCOC(=O)N1CCN(C(=O)c2ccc3c(Cl)cc(-c4ccc(C)c(CO)c4)nc3c2)CC1` [B159, Propyl 4-(4-chloro-2-(3-(hydroxymethyl)-4-methylphenyl)quinoline-7-carbonyl)piperazine-1-carboxylate] gave an IC50 of 120 nM. Work on `CCCOC(=O)N1CCN(C(=O)c2ccc3c(Cl)cc(-c4ccc(O)cc4)nc3c2)[C@@H](C)C1` [B160, Propyl (S)-4-(4-chloro-2-(4-hydroxyphenyl)quinoline-7-carbonyl)-3-methylpiperazine-1-carboxylate] yielded an IC50 of 150 nM. `CCCOC(=O)N1CCN(C(=O)c2ccc3c(Cl)cc(-c4ccc(CF)cc4)nc3c2)[C@@H](C)C1` [B161, Propyl (S)-4-(4-chloro-2-(4-(fluoromethyl)phenyl)quinoline-7-carbonyl)-3-methylpiperazine-1-carboxylate] gave an IC50 of 330 nM. `CCCOC(=O)N1CCN(C(=O)c2ccc3c(Cl)cc(-c4ccc(O)c(F)c4)nc3c2)[C@@H](C)C1` [B162, Propyl (S)-4-(4-chloro-2-(3-fluoro-4-hydroxyphenyl)quinoline-7-carbonyl)-3-methylpiperazine-1-carboxylate] was tested, and the IC50 was 200 nM. Work on `CCCOC(=O)N1CCN(C(=O)c2ccc3c(Cl)cc(-c4ccc5c(c4)OCO5)nc3c2)CC1` [B163, Propyl 4-(2-(benzo[d][1,3]dioxol-5-yl)-4-chloroquinoline-7-carbonyl)piperazine-1-carboxylate] yielded an IC50 of 120 nM. In the case of `CCCOC(=O)N1CCN(C(=O)c2ccc3c(Cl)cc(-c4ccc5nn[nH]c5c4)nc3c2)CC1` [B164, Propyl 4-(2-(1H-benzo[d][1,2,3]triazol-6-yl)-4-chloroquinoline-7-carbonyl)piperazine-1-carboxylate], the IC50 is reported as 360 nM. `CCCOC(=O)N1CCN(C(=O)c2ccc3c(Cl)cc(-c4ccc(OC)c(F)c4)nc3c2)CC1` [B165, Propyl 4-(4-chloro-2-(3-fluoro-4-methoxyphenyl)quinoline-7-carbonyl)piperazine-1-carboxylate] showed an IC50 of 150 nM. `CCCOC(=O)N1CCN(C(=O)c2ccc3c(Cl)cc(-c4cnc(C)s4)nc3c2)CC1` [B166, Propyl 4-(4-chloro-2-(2-methylthiazol-5-yl)quinoline-7-carbonyl)piperazine-1-carboxylate] was tested, and the IC50 was 3670 nM. With `CCCOC(=O)N1CCN(C(=O)c2ccc3c(Cl)cc(-c4ccc(F)c(CN(C)C)c4)nc3c2)CC1` [B167] the IC50 was 660 nM. Work on `CCCOC(=O)N1CCN(C(=O)c2ccc3c(Cl)cc(-c4ccn(C)n4)nc3c2)CC1` [B168, Propyl 4-(4-chloro-2-(1-methyl-1H-pyrazol-3-yl)quinoline-7-carbonyl)piperazine-1-carboxylate] yielded an IC50 of 1750 nM. `CCCOC(=O)N1CCN(C(=O)c2ccc3c(Cl)cc(-c4ccc5[nH]ncc5c4)nc3c2)C[C@@H]1C` [B169, Propyl (S)-4-(4-chloro-2-(1H-indazol-5-yl)quinoline-7-carbonyl)-2-methylpiperazine-1-carboxylate] gave an IC50 of 150 nM.
